Laboratory results published in patent US12410208B2, “(2-acetamidyl)thio-beta-D-galactopyranoside derivatives” (Idorsia Pharmaceuticals Ltd, priority 2020, dated 2025).
Where two headings read alike, the source gives them in different places.

Key:
[1] = target: human Gal-1 (hGal-1) (Homo sapiens, UniProt P09382); assay: Competitive binding assay: biotinylated hGal-1 binding to microplate-adsorbed asialofetuin (ASF), spectrophotometric; details: hGal-1 binding to asialofetuin; Table 15; R and S epimers of selected Examples also listed; read-out: IC50 (Galectin-1 inhibition)
human Gal-1 (hGal-1), sequence (P09382 whole entry): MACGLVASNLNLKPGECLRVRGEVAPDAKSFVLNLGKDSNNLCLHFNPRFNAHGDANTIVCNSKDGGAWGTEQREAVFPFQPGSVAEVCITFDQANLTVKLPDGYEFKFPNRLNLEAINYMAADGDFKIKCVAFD
In short: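 Biotinylated hGal-1 (300-1000 ng/mL) incubated with compound on asialofetuin-coated plates 3 hours at 4 °C, washed, then streptavidin-peroxidase (80 ng/mL) 1 hour at 4 °C. ABTS substrate read spectrophotometrically; IC50 reported as mean of several measurements.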

[2] = target: biotinylated human Gal-3 (hGal-3) (Homo sapiens, UniProt P17931); assay: Competitive binding assay: biotinylated hGal-3 binding to microplate-adsorbed asialofetuin (ASF), spectrophotometric
biotinylated human Gal-3 (hGal-3), sequence (P17931 whole entry): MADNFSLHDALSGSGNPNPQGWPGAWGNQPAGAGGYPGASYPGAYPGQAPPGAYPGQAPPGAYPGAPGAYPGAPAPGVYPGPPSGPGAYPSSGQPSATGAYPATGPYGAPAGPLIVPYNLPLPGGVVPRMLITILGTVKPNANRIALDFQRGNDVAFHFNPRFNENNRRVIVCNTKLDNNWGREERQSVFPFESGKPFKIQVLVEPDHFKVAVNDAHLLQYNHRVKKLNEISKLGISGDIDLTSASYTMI
In short: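 Competitive binding of biotinylated hGal-3 to plate-adsorbed asialofetuin was measured with serially diluted compounds over 3 h at 4° C. Bound protein was detected with streptavidin-peroxidase and ABTS substrate by absorbance. IC50 values are means of several measurements.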

[3] = Gal-3 inhibition, Table 5, read-out: IC50
[4] = Table 13, hGal-3, read-out: IC50 (Gal-3 inhibition)
[5] = Table 12, hGal-3, read-out: IC50 (Gal-3 inhibition)
[6] = Table 8, hGal-3, read-out: IC50 (Gal-3 inhibition)
[7] = Table 11, hGal-3, read-out: IC50 (Gal-3 inhibition)

| Compound | IC50 [1] [nM] | also measured |
| --- | --- | --- |
| CN(CC1(F)CCCC1)C(=O)C(S[C@@H]1O[C@H](CO)[C@H](O)[C@H](n2cc(-c3cc(F)c(F)c(F)c3)nn2)[C@H]1O)C1(O)CCC(F)(F)CC1 (mixture of isomers) [Example 2.44.223., 2-(4,4-Difluoro-1-hydroxycyclohexyl)-2-(((2S,3R,4S,5R,6R)-3,5-dihydroxy-6-(hydroxymethyl)-4-(4-(3,4,5-trifluorophenyl)-1H-1,2,3-triazol-1-yl)tetrahydro-2H-pyran-2-yl)thio)-N-((1-fluorocyclopentyl)methyl)-N-methylacetamide] | 120 | IC50 [2, 3]: 50 nM |
| CO[C@@H]1[C@@H](n2cc(-c3cc(F)c(F)c(F)c3)nn2)[C@@H](O)[C@@H](CO)O[C@H]1S[C@@H](C(=O)N1CCC(F)(F)CC1)C1(O)CCC2(CCC2)CC1 [Example 2.69.226R.I., (R)-1-(4,4-Difluoropiperidin-1-yl)-2-(((2S,3R,4S,5R,6R)-5-hydroxy-6-(hydroxymethyl)-3-methoxy-4-(4-(3,4,5-trifluorophenyl)-1H-1,2,3-triazol-1-yl)tetrahydro-2H-pyran-2-yl)thio)-2-(7-hydroxyspiro[3.5]nonan-7-yl)ethan-1-one] | 1640 | IC50 [2, 4]: 570 nM |
| CO[C@@H]1[C@@H](n2cc(-c3cc(F)c(F)c(F)c3)nn2)[C@@H](O)[C@@H](CO)O[C@H]1SC(C(=O)N(C)C)C1(O)CCC(F)(F)CC1 (stereo partly drawn) [Example 2.44.201.I., 2-(4,4-Difluoro-1-hydroxycyclohexyl)-2-(((2S,3R,4S,5R,6R)-5-hydroxy-6-(hydroxymethyl)-3-methoxy-4-(4-(3,4,5-trifluorophenyl)-1H-1,2,3-triazol-1-yl)tetrahydro-2H-pyran-2-yl)thio)-N,N-dimethylacetamide] | 250 | IC50 [2, 5]: 60 nM |
| CO[C@@H]1[C@@H](n2cc(-c3cc(F)c(F)c(F)c3)nn2)[C@@H](O)[C@@H](CO)O[C@H]1S[C@H](C(=O)N(C)c1ccccn1)C1(O)CCC(F)(F)CC1 [Example 2.41.233S.I.] | 30 | IC50 ([2]; Table 9, hGal-3, read-out: IC50 (Gal-3 inhibition)): 50 nM |
| CN(CC1CC1)C(=O)C(S[C@@H]1O[C@H](CO)[C@H](O)[C@H](n2cc(-c3cc(F)c(F)c(F)c3)nn2)[C@H]1O)C(C)(C)O (stereo partly drawn) [Example 2.31.218., N-(Cyclopropylmethyl)-2-(((2S,3R,4S,5R,6R)-3,5-dihydroxy-6-(hydroxymethyl)-4-(4-(3,4,5-trifluorophenyl)-1H-1,2,3-triazol-1-yl)tetrahydro-2H-pyran-2-yl)thio)-3-hydroxy-N,3-dimethylbutanamide] | 220 | IC50 ([2]; Table 6, hGal-3, read-out: IC50 (Gal-3 inhibition)): 30 nM |
| CO[C@@H]1[C@@H](n2cc(-c3cc(F)c(F)c(F)c3)nn2)[C@@H](O)[C@@H](CO)O[C@H]1SC(C(=O)NCCC(C)(C)C)C1(O)CCC(F)(F)CC1 (stereo partly drawn) [Example 2.44.252.I., 2-(4,4-Difluoro-1-hydroxycyclohexyl)-N-(3,3-dimethylbuty1)-2-(((2S,3R,4S,5R,6R)-5-hydroxy-6-(hydroxymethyl)-3-methoxy-4-(4-(3,4,5-trifluorophenyl)-1H-1,2,3-triazol-1-yl)tetrahydro-2H-pyran-2-yl)thio)acetamide] | 830 | IC50 [2, 5]: 320 nM |
| (2R,3R,4S,5R,6S)-2-(Acetoxymethyl)-6-(((R)-2-(ethyl(methyl)amino)-1-(3-hydroxy-1-(methoxycarbonyl)azetidin-3-yl)-2-oxoethyl)thio)-4-(4-(3,4,5-trifluorophenyl)-1H-1,2,3-triazol-1-yl)tetrahydro-2H-pyran-3,5-diyl diacetate [Example 2.58.203R.] | 1180 | IC50 [2, 6]: 450 nM |
| CCN(C)C(=O)[C@@H](S[C@@H]1O[C@H](CO)[C@H](O)[C@H](n2cc(-c3cc(F)c(F)c(F)c3)nn2)[C@H]1O)C1(O)CCN(C(=O)OC)CC1 [Example 2.50.203S., (S)-Methyl 4-(1-(((2S,3R,4S,5R,6R)-3,5-dihydroxy-6-(hydroxymethyl)-4-(4-(3,4,5-trifluorophenyl)-1H-1,2,3-triazol-1-yl)tetrahydro-2H-pyran-2-yl)thio)-2-(ethyl(methyl)amino)-2-oxoethyl)-4-hydroxypiperidine-1-carboxylate] | 60 | IC50 [2, 6]: 40 nM |
| CCN(C)C(=O)C(S[C@@H]1O[C@H](CO)[C@H](O)[C@H](n2cc(-c3cc(F)cc(Cl)c3)nn2)[C@H]1O)C1(O)CCOCC1 (stereo partly drawn) [Example 13.41.203., 2-(((2S,3R,4S,5R,6R)-4-(4-(3-Chloro-5-fluorophenyl)-1H-1,2,3-triazol-1-yl)-3,5-dihydroxy-6-(hydroxymethyl)tetrahydro-2H-pyran-2-yl)thio)-N-ethyl-2-(4-hydroxytetrahydro-2H-pyran-4-yl)-N-methylacetamide] | 130 | IC50 [2, 7]: 80 nM |
| CN(CC(F)(F)F)C(=O)C(S[C@@H]1O[C@H](CO)[C@H](O)[C@H](n2cc(-c3cc(F)c(F)c(F)c3)nn2)[C@H]1O)C1(O)CCCC1 (stereo partly drawn) [Example 2.38.219., 2-(((2S,3R,4S,5R,6R)-3,5-Dihydroxy-6-(hydroxymethyl)-4-(4-(3,4,5-trifluorophenyl)-1H-1,2,3-triazol-1-yl)tetrahydro-2H-pyran-2-yl)thio)-2-(1-hydroxycyclopentyl)-N-methyl-N-(2,2,2-trifluoroethyl)acetamide] | 110 | IC50 [2, 3]: 40 nM |
| CN(CC1CCOCC1)C(=O)C(S[C@@H]1O[C@H](CO)[C@H](O)[C@H](n2cc(-c3cc(F)c(F)c(F)c3)nn2)[C@H]1O)C1(O)CCOCC1 (stereo partly drawn) [Example 2.41.213., 2-(((2S,3R,4S,5R,6R)-3,5-dihydroxy-6-(hydroxymethyl)-4-(4-(3,4,5-trifluorophenyl)-1H-1,2,3-triazol-1-yl)tetrahydro-2H-pyran-2-yl)thio)-2-(4-hydroxytetrahydro-2H-pyran-4-yl)-N-methyl-N-((tetrahydro-2H-pyran-4-yl)methyl)acetamide] | 200 | IC50 ([2]; Gal-3 inhibition, Table 4, read-out: IC50): 80 nM |
| CN(C(=O)C(S[C@@H]1O[C@H](CO)[C@H](O)[C@H](n2cc(-c3cc(F)c(F)c(F)c3)nn2)[C@H]1O)C1(O)CCOCC1)C1CCC1 (stereo partly drawn) [Example 2.41.220.] | 30 | IC50 ([2]; Table 10, hGal-3, read-out: IC50 (Gal-3 inhibition)): 50 nM |
| CO[C@@H]1[C@@H](n2cc(-c3cc(F)c(F)c(F)c3)nn2)[C@@H](O)[C@@H](CO)O[C@H]1SC(C(=O)N1CCC(F)(F)CC1)C1(O)CCC2(CC2)CC1 (stereo partly drawn) [Example 2.67.226.1., 1-(4,4-Difluoropiperidin-1-yl)-2-(((2S,3R,4S,5R,6R)-5-hydroxy-6-(hydroxymethyl)-3-methoxy-4-(4-(3,4,5-trifluorophenyl)-1H-1,2,3-triazol-1-yl)tetrahydro-2H-pyran-2-yl)thio)-2-(6-hydroxyspiro[2.5]octan-6-yl)ethan-1-one] | 170 | IC50 [2, 4]: 120 nM |
| CCN(C)C(=O)C(S[C@@H]1O[C@H](CO)[C@H](O)[C@H](n2cc(-c3ccc(F)c(F)c3)nn2)[C@H]1O)C1(O)CCOCC1 (stereo partly drawn) [Example 16.41.203., 2-(((2S,3R,4S,5R,6R)-4-(4-(3,4-Difluorophenyl)-1H-1,2,3-triazol-1-yl)-3,5-dihydroxy-6-(hydroxymethyl)tetrahydro-2H-pyran-2-yl)thio)-N-ethyl-2-(4-hydroxytetrahydro-2H-pyran-4-yl)-N-methylacetamide] | 130 | IC50 [2, 7]: 60 nM |
| (S)-N-Cyclobutyl-2-(4,4-difluoro-1-hydroxycyclohexyl)-2-(((2S,3R,4S,5R,6R)-3,5-dihydroxy-6-(hydroxymethyl)-4-(4-(3,4,5-trifluorophenyl)-1H-1,2,3-triazol-1-yl)tetrahydro-2H-pyran-2-yl)thio)-N-methylacetamide [Example 2.44.206S.] | 190 | IC50 [2, 3]: 40 nM |
| CN(CC(C)(C)F)C(=O)[C@@H](S[C@@H]1O[C@H](CO)[C@H](O)[C@H](n2cc(-c3cc(F)c(F)c(F)c3)nn2)[C@H]1O)C1(O)CCC1 [Example 2.34.222S., (S)-2-(((2S,3R,4S,5R,6R)-3,5-Dihydroxy-6-(hydroxymethyl)-4-(4-(3,4,5-trifluorophenyl)-1H-1,2,3-triazol-1-yl)tetrahydro-2H-pyran-2-yl)thio)-N-(2-fluoro-2-methylpropyl)-2-(1-hydroxycyclobutyl)-N-methylacetamide] | 110 | IC50 [2, 3]: 90 nM |
| CN(CC1CC1)C(=O)C(S[C@@H]1O[C@H](CO)[C@H](O)[C@H](n2cc(-c3cc(F)c(F)c(F)c3)nn2)[C@H]1O)C(O)Cc1ccccc1 (stereo partly drawn) [Example 2.64.218., N-(Cyclopropylmethyl)-2-(((2S,3R,4S,5R,6R)-3,5-dihydroxy-6-(hydroxymethyl)-4-(4-(3,4,5-trifluorophenyl)-1H-1,2,3-triazol-1-yl)tetrahydro-2H-pyran-2-yl)thio)-3-hydroxy-N-methyl-4-phenylbutanamide] | 340 | IC50 ([2]; Gal-3 inhibition, Table 7, read-out: IC50): 110 nM |
| CO[C@@H]1[C@@H](n2cc(-c3cc(F)c(F)c(F)c3)nn2)[C@@H](O)[C@@H](CO)O[C@H]1S[C@H](C(=O)N1CCC(F)(F)CC1)C1(O)CCC(F)(F)CC1 [Example 2.44.226S.I., (S)-2-(4,4-difluoro-1-hydroxycyclohexyl)-1-(4,4-difluoropiperidin-1-yl)-2-(((2S,3R,4S,5R,6R)-5-hydroxy-6-(hydroxymethyl)-3-methoxy-4-(4-(3,4,5-trifluorophenyl)-1H-1,2,3-triazol-1-yl)tetrahydro-2H-pyran-2-yl)thio)ethan-1-one] | 70 | IC50 [2, 5]: 50 nM |
